Patent EP0528997B1, “DISULFIDE DERIVATIVES OF MERCAPTOACYLAMINO ACIDS” (SCHERING CORPORATION, priority 1990, dated 1991)

Legend:
[1] = test system: DOCA salt hypertension in the rat; assay: DOCA salt hypertension model (antihypertensive effect); format: in vivo, Sprague Dawley rats; settings: drop in blood pressure
[2] = test system: spontaneously hypertensive rats (SHR); assay: ANF potentiation procedure (antihypertensive effect in combination with ANF); format: in vivo; settings: drop in blood pressure; 30 mg/kg sc
Method: The antihypertensive effect of mercaptoacylamino acid disulfide derivatives in combination with ANF can be determined according to the following procedures:
Male spontaneously hypertensive rats (SHR), 16-18 weeks old, 270-350 g, are anesthetized with ether and the abdominal aorta is cannulated through the tail artery. The animals are then placed into restrainers to recover from anesthesia (in less than 10 min.) and remain inside throughout the experiments. Through a pressure transducer (Gould P23 series) analog blood pressure signals are registered on a Beckman 612 recorder. A Buxco digital computer is used to obtain mean arterial pressures. Patency of the arterial cannula is maintained with a continuous infusion of 5% dextrose at 0.2 ml/hr. Animals are allowed a 90-min equilibration period. The animals first undergo a challenge with an ANF such as atriopeptin II (AP II) or AP28 30 »g/kg iv and at the end of 60 min. are treated with drug vehicle or a mercapto-acylamino acid subcutaneously. A second ANF challenge is administered 15 min. later and blood pressure is monitored for the next 90 min.

Structure (SMILES)	DOCA Salt ΔBP (mmHg) ([1]; 3 mg/kg po)	ANF Potentiation ΔBP (mmHg) [2] [mmHg]	DOCA Salt ΔBP (mmHg) ([1]; 1 mg/kg po)	DOCA Salt ΔBP (mmHg) ([1]; 10 mg/kg po)	DOCA Salt ΔBP (mmHg) ([1]; 0.1 mg/kg po)
CCOC(=O)[C@H](CCSC)NC(=O)[C@@H](CSSC[C@@H](Cc1ccccc1C)C(=O)N[C@@H](CCSC)C(=O)OCC)Cc1ccccc1C [Example 1, 1,1'-[DITHIOBIS-[2(S)-(2-METHYLBENZYL)-1-OXO-3,1-PROPANEDIYL]]BIS-(S)-METHIONINE DIETHYL ESTER]	15	0	–	–	–
CSCC[C@H](NC(=O)[C@@H](CSSC[C@@H](Cc1ccccc1C)C(=O)N[C@@H](CCSC)C(=O)O)Cc1ccccc1C)C(=O)O [Example 2, 1,1'-[DITHIOBIS-[2(S)-(2-METHYLBENZYL)-1-OXO-3,1-PROPANEDIYL]]BIS-(S)-METHIONINE]	–	27	41	57	–
CCOC(=O)[C@@H](O)CNC(=O)[C@@H](CSSC[C@@H](Cc1ccccc1C)C(=O)NC[C@H](O)C(=O)OCC)Cc1ccccc1C [Example 3, 1,1'-[DITHIOBIS-[2(S)-(2-METHYLBENZYL)-1-OXO-3,1-PROPANEDIYL]]BIS-(S)-ISOSERINE DIETHYL ESTER]	–	29	30	44	31
Cc1ccccc1C[C@H](CSSC[C@@H](Cc1ccccc1C)C(=O)NC[C@H](O)C(=O)O)C(=O)NC[C@H](O)C(=O)O [Example 4, 1,1'-[DITHIOBIS-[2(S)-(2-METHYLBENZYL)-1-OXO-3,1-PROPANEDIYL]]BIS-(S)-ISOSERINE]	–	24	21	31	0
